Results taken from patent US20250115620A1, “BRIDGED TRICYCLIC CARBAMOYLPYRIDONE COMPOUNDS AND USES THEREOF” (Gilead Sciences, Inc., priority 2022, published 2025).
pEC50: −log10 of the molar value. Where two headings read alike, the source gives them in different places.

Experiments:
[1] = in vitro; details: human, uninfected MT-4 cells
Description: Compounds were serially diluted (1:3) in DMSO on 384-well polypropylene plates and further diluted 200-fold into complete RPMI media (10% FBS, 1% P/S) using the Biotek Micro Flow and Labcyte ECHO acoustic dispenser. […] Infected and uninfected MT-4 cells were further diluted in complete RPMI media and added to each plate using a Micro Flow dispenser. After 5 days incubation in a humidified and temperature controlled incubator (37° C.), Cell Titer Glo (Promega) was added to the assay plates and chemiluminescence read using an Envision plate-reader.
Assays were performed as above except uninfected MT-4 cells were added to each well containing test compound. In addition, 10 μM puromycin was added to the last column of each assay plate to assess a base level of cytotoxicity.

[2] = tested on: pLAI reporter virus; experiment: microbe, parasite or virus in culture; format: cell-based, HIV; details: Human immunodeficiency virus 1, MT4, 72 h
[3] = tested on: HIV-1 (IIIB); experiment: microbe, parasite or virus in culture; format: cell-based; details: Human immunodeficiency virus 1, IIIB, MT4, 120 h, HIV-1 (IIIB) in MT-4 cells, 5 days incubation, Cell Titer Glo; read-out: MT4 EC50
Description: Compounds were tested in a high-throughput 384-well assay format for their ability to inhibit the replication of HIV-1 (IIIB) in MT-4 cells. Compounds were serially diluted (1:3) in DMSO on 384-well polypropylene plates and further diluted 200-fold into complete RPMI media (10% FBS, 1% P/S) using the Biotek Micro Flow and Labcyte ECHO acoustic dispenser. Each plate contained up to 8 test compounds, with negative (No Drug Control) and 5 μM AZT positive controls. MT-4 cells were pre-infected with 10 μL of either RPMI (mock-infected) or a fresh 1:250 dilution of HIV-1 IIIB concentrated virus stock. Infected and uninfected MT-4 cells were further diluted in complete RPMI media and added to each plate using a Micro Flow dispenser. After 5 days incubation in a humidified and temperature controlled incubator (37° C.), Cell Titer Glo (Promega) was added to the assay plates and chemiluminescence read using an Envision plate-reader.

| Structure (SMILES) | CC50 at 5 days [1] [nM] | pEC50 ([2]; read-out: RLUC 50% HS EC50) | pEC50 ([2]; read-out: RLUC CCM EC50) | pEC50 [3] |
| --- | --- | --- | --- | --- |
| C[C@H]1CC[C@@]2(CC(O)CO2)[C@H]2CN1C(=O)c1c(O)c(=O)c(C(=O)NCc3c(F)cc(F)cc3F)cn12 (stereo partly drawn) [Example 123, (2R,3′S,7′R)-4,12′-dihydroxy-3′-methyl-1′,11′-dioxo-N-(2,4,6-trifluorobenzyl)-1′,4,4′,5,5′,11′-hexahydro-3H,3′H,7′H-spiro[furan-2,6′-[2,7]methanopyrido[1,2-a][1,4]diazonine]-10′-carboxamide] | ≥ 50000 | 8.85 | 8.68 | 8.08 |
| C[C@H]1CC[C@@]2(ON=C(CF)[C@@H]2O)[C@H]2CN1C(=O)c1c(O)c(=O)c(C(=O)NCc3ccc(F)cc3F)cn12 [Example 89, (3′S,4S,5R,7′R)—N-(2,4-difluorobenzyl)-3-(fluoromethyl)-4,12′-dihydroxy-3′-methyl-1′,11′-dioxo-1′,4′,5′,11′-tetrahydro-3′H,4H,7′H-spiro[isoxazole-5,6′-[2,7]methanopyrido[1,2-a][1,4]diazonine]-10′-carboxamide] | ≥ 50000 | 7.20 | 9.40 | 8.89 |
| C[C@H]1CC[C@@]2(COCO2)[C@H]2CN1C(=O)c1c(O)c(=O)c(C(=O)NCc3c(F)cc(F)cc3F)cn12 [Example 131, (3′S,4S,7′R)-12′-hydroxy-3′-methyl-1′,11′-dioxo-N-(2,4,6-trifluorobenzyl)-1′,4′,5′,11′-tetrahydro-3′H,7′H-spiro[[1,3]dioxolane-4,6′-[2,7]methanopyrido[1,2-a][1,4]diazonine]-10′-carboxamide] | 28900 | 8.09 | 9.30 | 8.72 |
| C[C@H]1CC[C@@]2(ON=C(CF)[C@@H]2O)[C@H]2CN1C(=O)c1c(O)c(=O)c(C(=O)NCc3c(F)cc(F)cc3F)cn12 [Example 88, (3′S,4S,5R,7′R)-3-(fluoromethyl)-4,12′-dihydroxy-3′-methyl-1′,11′-dioxo-N-(2,4,6-trifluorobenzyl)-1′,4′,5′,11′-tetrahydro-3′H,4H,7′H-spiro[isoxazole-5,6′-[2,7]methanopyrido[1,2-a][1,4]diazonine]-10′-carboxamide] | ≥ 50000 | 6.55 | 9.52 | 8.59 |
| COC1=NO[C@@]2(CC[C@H](CF)N3C[C@H]2n2cc(C(=O)NCc4ccc(F)cc4F)c(=O)c(O)c2C3=O)C1 [Example 100, (3′R,5S,7′R)—N-(2,4-difluorobenzyl)-3′-(fluoromethyl)-12′-hydroxy-3-methoxy-1′,11′-dioxo-1′,4′,5′,11′-tetrahydro-3′H,4H,7′H-spiro[isoxazole-5,6′-[2,7]methanopyrido[1,2-a][1,4]diazonine]-10′-carboxamide] | ≥ 50000 | 7.87 | 9.52 | 8.82 |
| C[C@H]1CCC2(OCCO2)[C@H]2CN1C(=O)c1c(O)c(=O)c(C(=O)NCc3c(F)cc(F)cc3F)cn12 [Example 125, (3′S,7′R)-12′-hydroxy-3′-methyl-1′,11′-dioxo-N-(2,4,6-trifluorobenzyl)-1′,4′,5′,11′-tetrahydro-3′H,7′H-spiro[[1,3]dioxolane-2,6′-[2,7]methanopyrido[1,2-a][1,4]diazonine]-10′-carboxamide] | 24200 | 7.52 | 9.70 | 9.15 |
| C[C@H]1CC[C@@]2(ON=C3OCCC[C@@H]32)[C@H]2CN1C(=O)c1c(O)c(=O)c(C(=O)NCc3c(F)cc(F)cc3F)cn12 [Example 50, (3S,3a R,3′S,7′R)-12′-hydroxy-3′-methyl-1′,11′-dioxo-N-(2,4,6-trifluorobenzyl)-1′,3a,4,4′,5,5′,6,11′-octahydro-3′H,7′H-spiro[pyrano[2,3-c]isoxazole-3,6′-[2,7]methanopyrido[1,2-a][1,4]diazonine]-10′-carboxamide] | ≥ 50000 | 7.99 | 9.30 | 9.10 |
| C[C@H]1CC[C@@]2(CC(=O)N(C)C2)[C@H]2CN1C(=O)c1c(O)c(=O)c(C(=O)NCc3c(F)cc(F)cc3F)cn12 [Example 62, (3S,3′S,7′S)-12′-hydroxy-1,3′-dimethyl-1′,5,11′-trioxo-N-(2,4,6-trifluorobenzyl)-1′,4′,5′,11′-tetrahydro-3′H,7′H-spiro[pyrrolidine-3,6′-[2,7]methanopyrido[1,2-a][1,4]diazonine]-10′-carboxamide] | ≥ 50000 | 7.87 | 8.11 | 7.51 |
| CC1=NO[C@@]2(CC[C@H](C)N3C[C@H]2n2cc(C(=O)NCc4ccc(F)cc4F)c(=O)c(O)c2C3=O)N1 [Example 148, (3′S,5R,7′R)—N-(2,4-difluorobenzyl)-12′-hydroxy-3,3′-dimethyl-1′,11′-dioxo-1′,4′,5′,11′-tetrahydro-3′H,4H,7′H-spiro[[1,2,4]oxadiazole-5,6′-[2,7]methanopyrido[1,2-a][1,4]diazonine]-10′-carboxamide] | ≥ 50000 | 7.68 | 8.96 | 8.47 |
| C[C@H]1CC[C@]2(CC(=O)N(Cc3ccc4c(cnn4C)c3)O2)[C@H]2CN1C(=O)c1c(O)c(=O)c(C(=O)NCc3c(F)cc(F)cc3F)cn12 [Example 103, (3′S,5S,7′R)-12′-hydroxy-3′-methyl-2-((1-methyl-1H-indazol-5-yl)methyl)-1′,3,11′-trioxo-N-(2,4,6-trifluorobenzyl)-1′,4′,5′,11′-tetrahydro-3′H,7′H-spiro[isoxazolidine-5,6′-[2,7]methanopyrido[1,2-a][1,4]diazonine]-10′-carboxamide] | ≥ 50000 | 9.40 | 9.70 | 8.82 |
| COc1ccc(CN2C(C)=NO[C@@]23CC[C@H](C)N2C[C@H]3n3cc(C(=O)NCc4ccc(F)cc4F)c(=O)c(O)c3C2=O)cc1 [Example 147, (3′S,5R,7′R)—N-(2,4-difluorobenzyl)-12′-hydroxy-4-(4-methoxybenzyl)-3,3′-dimethyl-1′,11′-dioxo-1′,4′,5′,11′-tetrahydro-3′H,4H,7′H-spiro[[1,2,4]oxadiazole-5,6′-[2,7]methanopyrido[1,2-a][1,4]diazonine]-10′-carboxamide] | 7530 | 7.91 | 8.89 | 8.39 |
| C[C@H]1CC[C@]2(CC(=O)N(C)O2)[C@H]2CN1C(=O)c1c(O)c(=O)c(C(=O)NCc3c(F)cc(F)cc3F)cn12 [Example 108, (3′S,5S,7′R)-12′-hydroxy-2,3′-dimethyl-1′,3,11′-trioxo-N-(2,4,6-trifluorobenzyl)-1′,4′,5′,11′-tetrahydro-3′H,7′H-spiro[isoxazolidine-5,6′-[2,7]methanopyrido[1,2-a][1,4]diazonine]-10′-carboxamide] | ≥ 50000 | 8.11 | 9.30 | 8.46 |
| C[C@H]1CC[C@@]2(CO2)[C@H]2CN1C(=O)c1c(O)c(=O)c(C(=O)NCc3c(F)cc(F)cc3F)cn12 [Example 166, (2S,3′S,7′R)-12′-hydroxy-3′-methyl-1′,11′-dioxo-N-(2,4,6-trifluorobenzyl)-1′,4′,5′,11′-tetrahydro-3′H,7′H-spiro[oxirane-2,6′-[2,7]methanopyrido[1,2-a][1,4]diazonine]-10′-carboxamide] | 4600 | 8.89 | 9.70 | 9.05 |
